Test results: ChEMBL document CHEMBL1201862, “PubChem BioAssay data set” (2004)
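96-well plates; 48 h exposure; 5 concentrations. Endpoints by linear interpolation between flanking doses. Not reached: highest tested concentration assigned. At the GI50, growth is halved.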 Calls of active or inactive are those of the source. Rule as the data show it: active = GI50 up to about 1.1 µM and inactive = higher.

Columns and labels:
Assay in all cases: NCI-60 cell line screen, 48 h
[1] = tested on: MDA-MB-231
[2] = tested on: NCI-H460
[3] = tested on: SK-MEL-2
[4] = tested on: OVCAR-4
[5] = tested on: UACC-257
[6] = tested on: SK-OV-3
[7] = tested on: RPMI-8226
[8] = tested on: BT-549
[9] = tested on: HOP-62
[10] = tested on: OVCAR-8
[11] = tested on: T47D
[12] = tested on: NCI/ADR-RES
[13] = tested on: HCC 2998
[14] = tested on: MDA-MB-435
[15] = tested on: HCT-116
[16] = tested on: MDA-N
[17] = tested on: HOP-92
[18] = tested on: UACC-62
[19] = tested on: MCF7
[20] = tested on: SR

Structure (SMILES)	GI50 [1]	GI50 [2]	GI50 [3]	GI50 [4]	GI50 [5]	GI50 [6]	GI50 [7]	GI50 [8]	GI50 [9]	GI50 [10]	GI50 [11]	GI50 [12]	GI50 [13]	GI50 [14]	GI50 [15]	GI50 [16]	GI50 [17]	GI50 [18]	GI50 [19]	GI50 [20]
Nc1n[c-](N)[n+](=O)c(N)c1NCO	> 100 µM (inactive)	> 100 µM (inactive)	> 100 µM (inactive)	> 100 µM (inactive)	> 100 µM (inactive)	> 100 µM (inactive)	> 100 µM (inactive)	> 100 µM (inactive)	> 100 µM (inactive)	> 100 µM (inactive)	> 100 µM (inactive)	> 100 µM (inactive)	> 100 µM (inactive)	> 100 µM (inactive)	> 100 µM (inactive)	> 100 µM (inactive)	> 100 µM (inactive)	> 100 µM (inactive)	> 100 µM (inactive)	> 100 µM (inactive)
CCOC(=O)c1c(N2CCCC2)[nH]c(=O)c(C(c2ccc(OC)cc2)c2c(O)c(C(=O)OCC)c(N3CCCC3)[nH]c2=O)c1O	20.8 µM (inactive)	> 100 µM (inactive)	5 µM (inactive)	> 100 µM (inactive)	> 100 µM (inactive)	> 100 µM (inactive)	> 100 µM (inactive)	76 µM (inactive)	46.6 µM (inactive)	86.1 µM (inactive)	> 100 µM (inactive)	> 100 µM (inactive)	> 100 µM (inactive)	> 100 µM (inactive)	> 100 µM (inactive)	> 100 µM (inactive)	12.3 µM (inactive)	> 100 µM (inactive)	> 100 µM (inactive)	88.9 µM (inactive)
N#Cc1c(=O)c2cccnc2n2c1[nH]c1ccccc12	27 µM (inactive)	69.2 µM (inactive)	> 100 µM (inactive)	> 100 µM (inactive)	> 100 µM (inactive)	52.8 µM (inactive)	> 100 µM (inactive)	57.3 µM (inactive)	41.4 µM (inactive)	66.7 µM (inactive)	> 100 µM (inactive)	64.6 µM (inactive)	> 100 µM (inactive)	> 100 µM (inactive)	91.4 µM (inactive)	> 100 µM (inactive)	22.6 µM (inactive)	> 100 µM (inactive)	> 100 µM (inactive)	> 100 µM (inactive)
COc1ccc(N2C(=O)/C(=C/c3ccc(N(CCC#N)CCC#N)cc3C)N=C2c2cc([N+](=O)[O-])ccc2Cl)cc1	12.6 µM (inactive)	4.5 µM (inactive)	6.15 µM (inactive)	> 46.5 µM (inactive)	46.3 µM (inactive)	4.54 µM (inactive)	4.18 µM (inactive)	53.2 µM (inactive)	5.46 µM (inactive)	5.33 µM (inactive)	> 89.9 µM (inactive)	> 10 µM (inactive)	4.68 µM (inactive)	1.96 µM (inactive)	3.94 µM (inactive)	1.56 µM (inactive)	> 31.7 µM (inactive)	5.27 µM (inactive)	4.81 µM (inactive)	3.24 µM (inactive)
COC(=O)c1c(C)cccc1C1CN=NC12Cc1c(C)cccc1C2=O (stereo not given)	82.8 µM (inactive)	97.3 µM (inactive)	99.3 µM (inactive)	35.7 µM (inactive)	43.4 µM (inactive)	> 100 µM (inactive)	46.5 µM (inactive)	> 100 µM (inactive)	> 100 µM (inactive)	44.7 µM (inactive)	37.9 µM (inactive)	59.6 µM (inactive)	57.8 µM (inactive)	39.8 µM (inactive)	68.7 µM (inactive)	> 100 µM (inactive)	19.9 µM (inactive)	40.1 µM (inactive)	55.2 µM (inactive)	> 100 µM (inactive)
COc1ccc(Cc2nc3cc(C(F)(F)F)ccc3n2C[C@@H]2CCCN3CCCCC23)cc1 (stereo not given in full)	11 µM (inactive)	13.6 µM (inactive)	15.6 µM (inactive)	11.7 µM (inactive)	2.46 µM (inactive)	15.1 µM (inactive)	11.6 µM (inactive)	13.8 µM (inactive)	8.73 µM (inactive)	15.3 µM (inactive)	6.04 µM (inactive)	14.2 µM (inactive)	2 µM (inactive)	12.2 µM (inactive)	5.58 µM (inactive)	4.59 µM (inactive)	5.62 µM (inactive)	5.69 µM (inactive)	8.34 µM (inactive)	3.93 µM (inactive)
CN(N)/N=N/c1[nH]cnc1C(N)=O	3.22 µM (inactive)	13.2 µM (inactive)	4.79 µM (inactive)	3.53 µM (inactive)	54.2 µM (inactive)	3.33 µM (inactive)	3.36 µM (inactive)	42.2 µM (inactive)	48.9 µM (inactive)	3.14 µM (inactive)	> 34.5 µM (inactive)	5.35 µM (inactive)	3.3 µM (inactive)	25.2 µM (inactive)	9.12 µM (inactive)	13.4 µM (inactive)	17.5 µM (inactive)	6.14 µM (inactive)	48.4 µM (inactive)	0.352 µM (active)
CC(=O)Nn1c(Cc2ccc(Cl)cc2)nn(C)c1=O	> 100 µM (inactive)	> 100 µM (inactive)	> 100 µM (inactive)	> 100 µM (inactive)	> 100 µM (inactive)	> 100 µM (inactive)	> 100 µM (inactive)	> 100 µM (inactive)	> 100 µM (inactive)	> 100 µM (inactive)	> 100 µM (inactive)	> 100 µM (inactive)	> 100 µM (inactive)	> 100 µM (inactive)	> 100 µM (inactive)	> 100 µM (inactive)	> 100 µM (inactive)	> 100 µM (inactive)	> 100 µM (inactive)	> 100 µM (inactive)
COc1cc2c3c(n(C)c(=O)c2cc1OC)-c1cc2c(cc1C3=O)OCO2	> 57.1 µM (inactive)	0.596 µM (active)	> 42 µM (inactive)	> 100 µM (inactive)	> 83.9 µM (inactive)	11.3 µM (inactive)	71.3 µM (inactive)	> 86.9 µM (inactive)	1.87 µM (inactive)	38.4 µM (inactive)	6.64 µM (inactive)	41.9 µM (inactive)	> 80.5 µM (inactive)	90.6 µM (inactive)	6.35 µM (inactive)	41.6 µM (inactive)	38.2 µM (inactive)	1.7 µM (inactive)	1.23 µM (inactive)	0.105 µM (active)
